{
  "source": "patent US20070010426A1",
  "about": "“Composition for preventing and treating cardiovascular disorders” (Maxluck Biotechnology Corp., priority 2005, published 2007)",
  "origin": "cited, not measured here",
  "tested_on": "obese mouse",
  "data": [
    {"substance": "chromium picolinate", "values": [
      {"measurement": "Effect on blood lipids", "result": "reduce the blood lipids"}
    ]}
  ]
}
